Assay results as given in patent US20210260057A1, “COMPOSITIONS AND METHODS TARGETING GLUTAMINE AND ITS METABOLISM FOR DIAGNOSING AND TREATING CANCER AND THERAPY-ASSOCIATED SIDE EFFECTS” (CEDARS-SINAI MEDICAL CENTER, priority 2018, published 2021).
Several values for one entry are separate records, joined by “and”; a condition that tells them apart may be missing. Identical values can stand only once.

Columns and labels:
C4-2B = assay: Glutamine transporter and glutaminase gene expression, C4-2B; format: cell-based, human; details: glutamine 2 mM
Description: (§1) RNA expression level. All real-time PCR assays were carried out using three technical replicates and three independent cDNA syntheses on a 7500 Real-Time PCR System (Applied Biosystems). Data were normalized using an internal control gene, either GAPDH or β-actin. Relative quantification of expression levels (RQ) was calculated using the ^2-ΔΔCt method.

CWR22Rv1 [1] = assay: CWR22Rv1 proliferation by cell counting in conditioned media; format: cell-based, human; details: NAF-CM supplemented with 0.4 mM glutamine, 72 hrs; compared to CAF-CM
Description: (FIG. 3A) Relative mRNA expression levels of CAF-marker genes in WT and Ras^V12 mouse fibroblast determined by quantitative rtPCR and analyzed using 2-way ANOVA (n≤3). (FIG. 3B) EpCAM-positive cancer epithelial was quantitated by FACS of 3D co-cultures of human epithelial (CWR22Rv1) cells and WT or Ras^V12 mouse fibroblasts. Statistical analysis was performed using two-tailed student's t test (n≤3). (FIG. 3C) ATP was measured in CWR22Rv1 after incubation with conditioned media human NAF or CAF or mouse WT or Ras^V12 fibroblast or oligomycin in glutamine free media (n≤3). Statistical analysis was performed using 1-way ANOVA with multiple comparisons. (FIG. 3D) The diagram represents the TCA cycle in CWR22Rv1 cells treated with NAF- or CAF-conditioned media for 72 hours prior to metabolome analysis (n≤3). (FIG. 3E) The metabolome analysis further indicated differential flux to aspartate, oxidized GSH, and GSH-reduced in CWR22Rv1 cells incubated with NAF- or CAF-conditioned media. (FIG. 3F) Glutamine concentrations were measured in the conditioned media from indicated mouse fibroblasts cultured for 72 hours. (FIG. 3D-FIG. 3F) Statistical analysis was performed using two-tailed student's t test (n≤3). (FIG. 3G) CWR22Rv1 proliferation was measured by cell counting following incubation with NAF and CAF conditioned media for 72 hrs in glutamine free media. […]

CWR22Rv1 [2] = assay: Glutamine transporter gene expression, CWR22Rv1; format: cell-based, human; details: CWR22Rv1, glutamine 2 mM
Description: as §1

[3] = test system: prostate cancer epithelial cells; assay: ALDH (stem marker) in prostate cancer epithelial cells; format: cell-based; details: prostate cancer epithelial cells (FIG. 17A, 17B)
[4] = test system: human prostate cancer cells (CWR22Rv1); assay: Gene expression in prostate cancer cells (FIG. 15A-D); format: cell-based; details: for Bone morphogenic protein (BMP) expression: CWR22Rv1 (FIG. 15A); for TET2 expression: FIG. 15C, 15D
CWR22Rv1 [5] = assay: qPCR of neuroendocrine marker genes, CWR22Rv1; format: cell-based, human; details: CWR22Rv1, L-glutamine alone vs vehicle; F-test P<0.0001
Description: as §1

C4-2B cells [6] = assay: qPCR of neuroendocrine marker genes, C4-2B; format: cell-based, human; details: L-glutamine 2 mM, P<0.0001
Description: as §1

prostatic fibroblasts = assay: Glutamine in conditioned media of prostatic fibroblasts; format: cell-based; details: FIG. 17C
Description: (§2) Measurements of glutamine. Glutamine was measured in blood plasma and conditioned media by using glutamine detection kit (Abcam) following manufacturer protocol. Deproteinization step was performed in plasma samples prior to glutamine detection. The absorbance was measured at 450 nm using a Bio-Rad Benchmark plus microplate spectrophotometer (Bio-Rad Laboratories).

bone marrow fibroblasts = assay: Glutamine expression by bone marrow fibroblasts; format: cell-based; details: FIG. 15E, FIG. 17D
Description: as §2

RASAL3 mRNA in NAF = assay: RASAL3 mRNA expression (rtPCR) in NAF; format: cell-based, human; details: 5-day treatment; Bic 10^−5 M, Enza 10^−5 M, R1881 10^−9 M
Description: as §1

[7] = test system: CWR22Rv1 and CAF tissue recombinants; assay: Castrate resistant sub-renal capsule xenograft (castration + enzalutamide)
Description: Tissue recombination mouse models. Cell recombinants were prepared by mixing 2×10^5 epithelial (CWR22Rv1) cells with 6×10^5 CAFs or stromal cells expressing KRAS^V12 per site in collagen as described before (Banerj ee J, Mishra R, Li X, Jackson R S, 2nd, Sharma A, and Bhowmick N A. A reciprocal role of prostate cancer on stromal DNA damage. Oncogene. 2014; 33(41):4924-31). The mice were either left intact or castrated 1 week after grafting. […] Castrated mice were treated with enzalutamide (5 mg/kg) either alone or in combination with L-glutamic acid Υ-(p-nitroanilide) hydrochloride (GPNA; 10 mg/kg; Sigma-Aldrich) for three weeks. The tumor volumes were measured using digital calipers and calculated using the following formula: length (mm)×width (mm)×width (mm)×0.52. When the mice were sacrificed and tumors were excised and photographed. Formalin-fixed, paraffin-embedded (FFPE) xenograft tumor tissue was sectioned and stained with hematoxylin and eosin (H&E) and staining for chromogranin A, TUNEL, phosphorylated-hi stone H3 and phosphorylated-mTOR.

[8] = test system: prostate cancer (serum PSA); assay: PSA response of PCa patients on androgen targeted therapy; format: in vivo, human; set-up: PSA on treatment: unit not given beside the values
Description: Plasma glutamine level may be prognostic for ADT sensitivity. Considering the striking finding that glutamine can induce ADT resistance, we tested if glutamine concentrations can be associated with ADT sensitivity in prostate cancer patients. We measured blood plasma glutamine concentrations in 28 PCa patients that received ADT (Table 1). Of note, the specific androgen signaling-axis interventions in the patient pool included, androgen receptor antagonists: bicalutamide, enzalutamide, and apalutamide, as well as androgen synthesis inhibitors: leuprolide, goserelin, triptorelin, and abiraterone.

RASAL3 mRNA in CAF = assay: RASAL3 mRNA expression (rtPCR) in CAF; format: cell-based, human; details: 5-day treatment; Bic 10^−5 M, Enza 10^−5 M, R1881 10^−9 M, 5-Aza 5 mmol/L
Description: as §1

RASAL3 promoter = assay: Methylation specific PCR of RASAL3 exon 2 in CAF; format: cell-based, human; details: CAF after treatment
Description: (FIG. 13A) Quantitative rtPCR analysis of RASAL3 in NAF and CAF was performed following 5 day treatment with bicalutamide (Bic, 10^−5 M), enzalutamide (Enza, 10^−5 M), R1881 (10^−9 M), or 5-Azacytidine (5-Aza, […]). RASAL3 expression was normalized GAPDH expression. Data represent the mean±SEM. *P<0.05, ***P<0.001, and ****P<0.0001, by two-way ANOVA followed by multiple comparison. Results are the average of at least three independent experiments. (FIG. 13B) MS-PCR of the RASAL3 exon 2 methylation status in CAF after treatment with enzalutamide, R1881, 5-Azacytidine and bicalutamide was performed. The PCR products in the lanes marked “U” indicate unmethylated templates for RASAL3 gene, whereas the products in the lanes marked “M” indicate methylated templates. Data are representative of three independent experiments.

CWR22Rv1 cells [9] = assay: Seahorse XF-24 metabolic flux analysis, CWR22Rv1; format: cell-based, human; details: CWR22Rv1 in Ras^V12 fibroblast-CM; GPNA 10 μM
Description: (§3) Seahorse XF-24 metabolic flux analysis. Oxygen consumption rate (OCR, pmol min-1) was measured with the Searhorse Bioscience XF24 extracellular flux analyzer. Cells were incubated in a CO2-free incubator for 1 h at 37° C. to allow for temperature and pH equilibration prior to loading into the XF24 apparatus. Initial assays were performed to optimize cell number, FCCP concentration and oligomycin concentration (data not shown). We used L-Glutamic acid γ-(p-nitroanilide) hydrochloride (GPNA, 10 μM), a specific glutamine […] inhibitor.

CWR22Rv1 with CAF = assay: 3D co-cultures of CAF-CWR22Rv1, neuroendocrine gene panel rtPCR; format: cell-based, human; details: in the context of enzalutamide, 3 days, glutamine free media, well below control levels, F test P<0.0001
Description: (§4) 3D organotypic co-culture. A modified version of the 3D organotypic co-culture system was performed in a collagen matrix similar to that previously reported (Stark H J, Baur M, Breitkreutz D, Mirancea N, and Fusenig N E. Organotypic keratinocyte cocultures in defined medium with regular epidermal morphogenesis and differentiation. J Invest Dermatol. 1999; 112(5):681-91). Matrix were prepared by mixing five volumes of rat tail collagen with two volumes of matrigel in one volume of 10×DMEM medium (GE Healthcare Life Sciences), and one volume of FBS (Atlanta Biologicals). CWR22Rv1 and primary mouse prostatic fibroblasts (WT or RAS^V12) were combined in a 1:3 ratio in the matrix. Nylon squares were coated with collagen and placed on metal grids in a 6-well plate. Matrix plugs containing cells, formed in 96 well plates (150 μl), were transferred onto the nylon squares and media was added to the level of the nylon mesh. Following treatments, the cells were dissociated from the matrix with collagenase and dispase for FACS analysis.
as §1

[10] = test system: CWR22Rv1 and CAF tissue recombinants; assay: Sub-renal capsule tissue recombinant xenograft, intact mice; format: in vivo, mouse; details: GPNA vs control
Description: Tissue recombination mouse models.

CWR22Rv1 cells [11] = assay: 3D organotypic co-culture, epithelial proliferation by FACS (EpCAM+/Ki67+); format: cell-based, human; details: 3D co-cultures of fibroblasts and CWR22Rv1; P<0.05 (GPNA), P<0.001 (BPTES)
Description: as §4

C4-2B cells [12] = assay: Seahorse XF-24 metabolic flux analysis, C4-2B; format: cell-based, human; details: C4-2B in Ras^V12 fibroblast-CM; GPNA 10 μM
Description: as §3

RASAL3 exon 2 = assay: Bisulfite sequencing of RASAL3 exon 2 in CAF; format: cell-based, human; details: CAF treated with R1881 for 5 days
Description: Bisulfite Sequencing. Bisulfite sequencing was performed as described previously (Haldar S, Dru C, Mishra R, Tripathi M, Duong F, Angara B, Fernandez A, Arditi M, and Bhowmick N A. Histone deacetylase inhibitors mediate DNA damage repair in ameliorating hemorrhagic cystitis. Sci Rep. 2016; 6(39257). Briefly, genomic DNA was extracted from the NAF and CAF samples and 200 ng of DNA was bisulfite converted by using the EZ DNA Methylation-Gold Kit (Zymo Research, Irvine, Calif.) according to the manufacturer's protocol. Three overlapping primers were used for amplification of Exon 2 region of RASAL3 by ZymoTaq DNA polymerase (Zymo Research) and subsequently cloned into the pCR2.1-TOPO vector (Invitrogen by Life Technologies, Carlsbad, Calif.). The primer sequences used to amplify the three regions were designed by using the Meth-Primer program (www.urogene.org/methprimer/) and are listed in Table 4. Five clones from each sample were sequenced by using Sanger's method.

[13] = castrated, enzalutamide treated mice, addition of GPNA

## NC(=O)CC[C@H](N)C(=O)O [glutamine, L-glutamine]
C4-2B
  SLC38A1 transporter expression: did not seem to be regulated
C4-2B; time dependent
  expression of glutamine importers SLC1A5 and SCL38A2: consistently increased
C4-2B; within 6 hours of treatment
  GLS and GLS2 mRNA expression: promote
CWR22Rv1 [1]
  CWR22Rv1 proliferation: restored CWR22Rv1 proliferation
CWR22Rv1 [2]
  SLC38A1 transporter expression: did not seem to be regulated
CWR22Rv1 [2]; time dependent
  expression of glutamine importers SLC1A5 and SCL38A2: consistently increased
[3]
  ALDH (stem marker): upregulates
[4]
  Bone morphogenic protein (BMP) expression: upregulated
  TET2 expression: upregulates
[4]; increasing doses of Gln (FIG. 15B)
  osteopotegrin (OPG) and FoxMl expression: upregulates
CWR22Rv1 [5]
  expression of neuroendocrine gene panel: upregulated
C4-2B cells [6]
  neuroendocrine differentiation (marker gene expression): induce neuroendocrine differentiation

## CNC(=O)c1ccc(N2C(=S)N(c3ccc(C#N)c(C(F)(F)F)c3)C(=O)C2(C)C)cc1F [enzalutamide]
Prostatic fibroblasts
  glutamine expression in the conditioned media of prostatic fibroblasts: promotes
Bone marrow fibroblasts
  glutamine expression in bone marrow fibroblasts: promotes
RASAL3 mRNA in NAF
  RASAL3 mRNA expression in NAF: downregulated
[3]
  ALDH (stem marker): upregulates
[4]
  Bone morphogenic protein (BMP) expression: upregulated
  TET2 expression: induces
[7]; castrated mice treated with enzalutamide alone
  tumor growth under ADT: expanded despite ADT
[8]; individual PCa patient on the listed Rx
  PSA on treatment: 0.1 and 344.3 and <0.1 and 116.7
[8]; individual PCa patient, responsiveness to ADT based on serum PSA
  Outcome: Responsive (2×) and Non- (2×)
RASAL3 mRNA in CAF
  RASAL3 mRNA expression in CAF: little effect
RASAL3 promoter
  methylation of the RASAL3 promoter (methylation specific PCR): hypermethylation

## N[C@@H](CCC(=O)Nc1ccc([N+](=O)[O-])cc1)C(=O)O [GPNA, L-gamma-glutamyl-p-nitroanilide]
CWR22Rv1 cells [9]
  basal respiration, ATP, and maximal respiration (OCR): restored basal respiration, ATP, and maximal respiration to that observed with wild type fibroblast-CM
CWR22Rv1 with CAF
  mRNA expression of the panel of neuroendocrine biomarker genes: significantly reduced
[10]; P<0.0001
  mitotic index (phosphorylated-histone H3): reduced
[10]; P<0.001
  tumor volume: reduced tumor volume
CWR22Rv1 cells [11]
  epithelial proliferation (Ki-67 staining of EpCAM+ cells, FACS): significantly decreased epithelial proliferation
[7]; GPNA + ADT vs ADT alone, P<0.001
  cell death (TUNEL): elevated
[7]; GPNA + ADT vs ADT alone, P<0.05
  localization of phosphorylated-mTOR (Ser-2481): reduced
[7]; GPNA + ADT vs androgen signaling blockage alone
  mitotic index (phosphorylated histone H3): did not significantly change
[7]; castrated mice, enzalutamide 5 mg/kg + GPNA 10 mg/kg for three weeks vs ADT alone, P<0.0001
  tumor size: significantly reduced tumor size
[7]; [13]
  chromogranin A expression induced by castration and enzalutamide: reduced chromogranin A expression
  histology (H&E): associated with karyolytic cells
C4-2B cells [12]
  basal respiration, ATP, and maximal respiration (OCR): restored basal respiration, ATP, and maximal respiration to that observed with wild type fibroblast-CM

## C[C@]1(O)CC[C@H]2[C@@H]3CCC4=CC(=O)CCC4=C3C=C[C@@]21C [R1881]
RASAL3 exon 2
  prevention of CpG methylation of RASAL3 exon 2, over vehicle treated CAF: 2.6 fold
RASAL3 mRNA in NAF
  RASAL3 mRNA expression in NAF: no effect
RASAL3 mRNA in CAF
  RASAL3 mRNA expression in CAF: significantly elevated
RASAL3 promoter
  methylation of the RASAL3 promoter (methylation specific PCR): hypomethylation
